The source of these data is patent US10442803B2, “Tricyclic heterocycles as bet protein inhibitors” (Incyte Corporation, priority 2013, dated 2019).

The structures appear in SMILES notation. pIC50: −log10 of the molar value. Where a name gives a salt, the structure may show the parent alone.

One experiment deals with KMS.12.BM cells. Kind of experiment: KMS.12.BM cell viability assay. The conditions noted are these: 72 h; KMS.12.BM human myeloma cells, 3 days, Cell Titer-GLO ATP quantitation; read-out: KMS cellular IC50. It counts as cell-based. A digest of the protocol: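 IC50 derived from luminescent ATP quantitation (Cell Titer-GLO) of viable cells after 3-day compound treatment. KMS.12.BM human myeloma line seeded at 5000 cells/well in RPMI with 10% FBS.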
(In general: ATP-based viability assays read luminescence as a measure of living cells.)
For `CCn1cnc(-c2cc3c(ccc4nnc(C)n43)n2Cc2ccccc2)c1` [Example 80, 6-benzyl-7-(1-ethyl-1H-imidazol-4-yl)-1-methyl-6H-pyrrolo[2,3-e][1,2,4]triazolo[4,3-a]pyridine], the pIC50 (commonly the negative decadic logarithm of the IC50, by convention in mol/L) is ≥ 6.00.

In the case of `Cc1nnc2ccc3c(cc(-c4cn(CCC#N)cn4)n3Cc3ccccc3)n12` [Example 81, 3-[4-(6-benzyl-1-methyl-6H-pyrrolo[2,3-e][1,2,4]triazolo[4,3-a]pyridin-7-yl)-1H-imidazol-1-yl]propanenitrile], the pIC50 is ≥ 6.00.

As for `CNC(=O)c1cc2c(ccc3nnc(C)n32)n1Cc1ccccc1` [Example 82, 6-benzyl-N,1-dimethyl-6H-pyrrolo[2,3-e][1,2,4]triazolo[4,3-a]pyridine-7-carboxamide], the pIC50 was ≥ 6.00.

Turning to `CCCNC(=O)c1cc2c(ccc3nnc(C)n32)n1Cc1ccccc1` [Example 83, 6-benzyl-1-methyl-N-propyl-6H-pyrrolo[2,3-e][1,2,4]triazolo[4,3-a]pyridine-7-carboxamide], the pIC50 is ≥ 6.00.

For `Cc1nnc2ccc3c(cc(C(=O)NC4CCC4)n3Cc3ccccc3)n12` [Example 85, 6-benzyl-N-cyclobutyl-1-methyl-6H-pyrrolo[2,3-e][1,2,4]triazolo[4,3-a]pyridine-7-carboxamide], the pIC50 is ≥ 6.00.

Regarding `Cc1nnc2ccc3c(cc(-c4ccn(CCN(C)C)n4)n3Cc3ccccc3)n12` [Example 89, 2-[3-(6-benzyl-1-methyl-6H-pyrrolo[2,3-e][1,2,4]triazolo[4,3-a]pyridin-7-yl)-1H-pyrazol-1-yl]-N,N-dimethylethanamine], the pIC50 is ≥ 6.00.

For the compound `Cc1nnc2ccc3c(cc(-c4ccn(C5(CC#N)CNC5)n4)n3Cc3ccccc3)n12` [Example 90, {3-[3-(6-benzyl-1-methyl-6H-pyrrolo[2,3-e][1,2,4]triazolo[4,3-a]pyridin-7-yl)-1H-pyrazol-1-yl]azetidin-3-yl}acetonitrile], the pIC50 is ≥ 6.00.

Take `CC(=O)N1CC(CC#N)(n2ccc(-c3cc4c(ccc5nnc(C)n54)n3Cc3ccccc3)n2)C1` [Example 91, {1-acetyl-3-[3-(6-benzyl-1-methyl-66H-pyrrolo[2,3-e][1,2,4]triazolo[4,3-a]pyridin-7-yl)-1H-pyrazol-1-yl]azetidin-3-yl}acetonitrile]: the pIC50 was ≥ 6.00.

`Cc1nnc2ccc3c(cc(-c4ccn(C5(CC#N)CN(S(C)(=O)=O)C5)n4)n3Cc3ccccc3)n12` [Example 92, [3-[3-(6-benzyl-1-methyl-6H-pyrrolo[2,3-e][1,2,4]triazolo[4,3-a]pyridin-7-yl)-1H-pyrazol-1-yl]-1-(methylsulfonyl)azetidin-3-yl]acetonitrile]: the pIC50 is ≥ 6.00.

Regarding `Cc1nnc2ccc3c(cc(-c4ccn(C5(CC#N)CN(C)C5)n4)n3Cc3ccccc3)n12` [Example 93, {3-[3-(6-benzyl-1-methyl-6H-pyrrolo[2,3-e][1,2,4]triazolo[4,3-a]pyridin-7-yl)-1H-pyrazol-1-yl]-1-methylazetidin-3-yl}acetonitrile], the pIC50 was ≥ 6.00.

Turning to `Cc1nnc2ccc3c(cc(-c4ccn(CCC(=O)N(C)C)n4)n3Cc3ccccc3)n12` [Example 95, 3-[3-(6-benzyl-1-methyl-6H-pyrrolo[2,3-e][1,2,4]triazolo[4,3-a]pyridin-7-yl)-1H-pyrazol-1-yl]-N,N-dimethylpropanamide], the negative logarithm of the IC50 (pIC50) is ≥ 6.00.

On to `CCNC(=O)CCn1ccc(-c2cc3c(ccc4nnc(C)n43)n2Cc2ccccc2)n1` [Example 96, 3-[3-(6-benzyl-1-methyl-6H-pyrrolo[2,3-e][1,2,4]triazolo[4,3-a]pyridin-7-yl)-1H-pyrazol-1-yl]-N-ethylpropanamide], for which the pIC50 was ≥ 6.00.

As for `CNC(=O)CCn1ccc(-c2cc3c(ccc4nnc(C)n43)n2Cc2ccccc2)n1` [Example 97, 3-[3-(6-benzyl-1-methyl-6H-pyrrolo[2,3-e][1,2,4]triazolo[4,3-a]pyridin-7-yl)-1H-pyrazol-1-yl]-N-methylpropanamide], the pIC50 is ≥ 6.00.

With `Cc1nnc2ccc3c(cc(-c4ccn(CCC(N)=O)n4)n3Cc3ccccc3)n12` [Example 98, 3-[3-(6-benzyl-1-methyl-6H-pyrrolo[2,3-e][1,2,4]triazolo[4,3-a]pyridin-7-yl)-1H-pyrazol-1-yl]propanamide], the pIC50 was ≥ 6.00.

Turning to `CNC(=O)c1cc2c(ccc3nnc(C)n32)n1Cc1cccc(Cl)c1` [Example 99, 6-(3-chlorobenzyl)-N,1-dimethyl-6H-pyrrolo[2,3-e][1,2,4]triazolo[4,3-a]pyridine-7-carboxamide], the pIC50 was ≥ 6.00.

`Cc1nnc2ccc3c(cc(C(=O)N[C@H]4C[C@H](C#N)C4)n3Cc3ccccc3)n12` [Example 100, 6-benzyl-N-(trans-3-cyanocyclobutyl)-1-methyl-6H-pyrrolo[2,3-e][1,2,4]triazolo[4,3-a]pyridine-7-carboxamide]: the negative logarithm of the IC50 (pIC50) was 5.00 to 6.00.

Turning to `Cc1nnc2ccc3c(cc(C(=O)N[C@H]4C[C@@H](C#N)C4)n3Cc3ccccc3)n12` [Example 101, 6-benzyl-N-(cis-3-cyanocyclobutyl)-1-methyl-6H-pyrrolo[2,3-e][1,2,4]triazolo[4,3-a]pyridine-7-carboxamide], the pIC50 is 5.00 to 6.00.

Take `CNC(=O)c1cc2c(ccc3nnc(C)n32)n1Cc1cccc(F)c1` [Example 102, 6-(3-fluorobenzyl)-N,1-dimethyl-6H-pyrrolo[2,3-e][1,2,4]triazolo[4,3-a]pyridine-7-carboxamide]: the pIC50 is ≥ 6.00.

For `Cc1nnc2ccc3c(cc(-c4ccn(CCC(=O)N5CCC5)n4)n3Cc3cccc(Cl)c3)n12` [Example 104, 7-[1-(3-azetidin-1-yl-3-oxopropyl)-1H-pyrazol-3-yl]-6-(3-chlorobenzyl)-1-methyl-6H-pyrrolo[2,3-e][1,2,4]triazolo[4,3-a]pyridine], the pIC50 is ≥ 6.00.

Take `Cc1nnc2ccc3c(cc(-c4ccn(CCC(=O)N5CCN(C)CC5)n4)n3Cc3cccc(Cl)c3)n12` [Example 105, 6-(3-chlorobenzyl)-1-methyl-7-{1-[3-(4-methylpiperazin-1-yl)-3-oxopropyl]-1H-pyrazol-3-yl}-6H-pyrrolo[2,3-e][1,2,4]triazolo[4,3-a]pyridine]: the pIC50 is ≥ 6.00.

On to `CC(=O)N1CC(CC#N)(n2ccc(-c3cc4c(ccc5nnc(C)n54)n3Cc3cccc(Cl)c3)n2)C1` [Example 106, (1-acetyl-3-{3-[6-(3-chlorobenzyl)-1-methyl-6H-pyrrolo[2,3-e][1,2,4]triazolo[4,3-a]pyridin-7-yl]-1H-pyrazol-1-yl}azetidin-3-yl)acetonitrile], for which the pIC50 is ≥ 6.00.

As for `Cc1nnc2ccc3c(cc(-c4ccn(C5(CC#N)CN(S(C)(=O)=O)C5)n4)n3Cc3cccc(Cl)c3)n12` [Example 107, [3-{3-[6-(3-chlorobenzyl)-1-methyl-6H-pyrrolo[2,3-e][1,2,4]triazolo[4,3-a]pyridin-7-yl]-1H-pyrazol-1-yl}-1-(methylsulfonyl)azetidin-3-yl]acetonitrile], the pIC50 is ≥ 6.00.

For the compound `CC(=O)N1CC(n2ccc(-c3cc4c(ccc5nnc(C)n54)n3Cc3cccc(Cl)c3)n2)C1` [Example 108, 7-[1-(1-acetylazetidin-3-yl)-1H-pyrazol-3-yl]-6-(3-chlorobenzyl)-1-methyl-6H-pyrrolo[2,3-e][1,2,4]triazolo[4,3-a]pyridine], the pIC50 was ≥ 6.00.

For `CCNC(=O)c1cc2c(ccc3nnc(C)n32)n1Cc1cccc(Cl)c1` [Example 113, 6-(3-Chlorobenzyl)-N-ethyl-1-methyl-6H-pyrrolo[2,3-e][1,2,4]triazolo[4,3-a]pyridine-7-carboxamide trifluoroacetate salt], the pIC50 was ≥ 6.00.

For `Cc1nnc2ccc3c(cc(C(=O)NCC4CC4)n3Cc3cccc(Cl)c3)n12` [Example 114, 6-(3-Chlorobenzyl)-N-(cyclopropylmethyl)-1-methyl-6H-pyrrolo[2,3-e][1,2,4]triazolo[4,3-a]pyridine-7-carboxamide trifluoroacetate salt], the pIC50 was ≥ 6.00.

As to `Cc1nnc2ccc3c(cc(C(=O)NCCO)n3Cc3cccc(Cl)c3)n12` [Example 117, 6-(3-Chlorobenzyl)-N-(2-hydroxyethyl)-1-methyl-6H-pyrrolo[2,3-e][1,2,4]triazolo[4,3-a]pyridine-7-carboxamide trifluoroacetate salt], the pIC50 is ≥ 6.00.

For `Cc1nnc2ccc3c(cc(C(=O)NCCN4CCOCC4)n3Cc3cccc(Cl)c3)n12` [Example 119, 6-(3-Chlorobenzyl)-1-methyl-N-(2-morpholin-4-ylethyl)-6H-pyrrolo[2,3-e][1,2,4]triazolo[4,3-a]pyridine-7-carboxamide trifluoroacetate salt], the pIC50 was ≥ 6.00.

Turning to `CCNC(=O)c1cc2c(ccc3nnc(C)n32)n1Cc1cccc(CN2CCC2)c1` [Example 121, 6-[3-(Azetidin-1-ylmethyl)benzyl]-N-ethyl-1-methyl-6H-pyrrolo[2,3-e][1,2,4]triazolo[4,3-a]pyridine-7-carboxamide bis(trifluoroacetate) salt], the pIC50 is ≥ 6.00.

`CNC(=O)c1cc2c(ccc3nnc(C)n32)n1Cc1cccc(CN2CCC2)c1` [Example 122, 6-[3-(Azetidin-1-ylmethyl)benzyl]-N,1-dimethyl-6H-pyrrolo[2,3-e][1,2,4]triazolo[4,3-a]pyridine-7-carboxamide bis(trifluoroacetate) salt]: the pIC50 is 5.00 to 6.00.

Turning to `Cc1nnc2ccc3c(cc(C(=O)NCCCO)n3Cc3ccccc3)n12` [Example 123, 6-Benzyl-N-(3-hydroxypropyl)-1-methyl-6H-pyrrolo[2,3-e][1,2,4]triazolo[4,3-a]pyridine-7-carboxamide trifluoroacetate salt], the pIC50 is ≥ 6.00.

The same experiment, now with this note: KMS.12.BM human myeloma cells, 3 days, Cell Titer-GLO ATP quantitation; read-out: KMS cellular IC50.
Turning to `Cc1nnc2ccc3c(cc(-c4ccn(CCC(=O)N(C)C)n4)n3Cc3cccc(Cl)c3)n12` [Example 103, 3-{3-[6-(3-chlorobenzyl)-1-methyl-6H-pyrrolo[2,3-e][1,2,4]triazolo[4,3-a]pyridin-7-yl]-1H-pyrazol-1-yl}-N,N-dimethylpropanamide], the negative-log IC50 (pIC50) is ≥ 6.00.
